# Experimental data: PMC10734772 (Turkish Journal of Chemistry, 2021)
# Columns and labels:
# Format in all cases: cell-based
# Reh = assay: MTT assay, Reh cells; conditions: Homo sapiens, 24 h, read-out: Viability rate
# [1] = MTT assay, Hek293T non-leukemic control cells; conditions: human, read-out: Viability rate
# Molt-4 = assay: MTT assay, Molt-4 cells
# [2] = test system: K562, Nalm-6, Molt-4, Reh, Jurkat, Hek293T cell lines; assay: MTT assay, overall judgement over all cell lines; conditions: overall judgement in words; for 6 and 10: on all cell lines, except Reh
# Outline: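 MTT viability assay run across a range of compound concentrations in leukemic lines, BCR-ABL positive K562 and BCR-ABL negative Nalm-6, Molt-4, Reh, Jurkat, plus non-leukemic Hek293T. Viability rate calculated per concentration.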
# Jurkat = assay: MTT assay, Jurkat cells; conditions: Homo sapiens, 24 h, read-out: Viability rate
# K562 = assay: MTT assay, K562 cells; conditions: Homo sapiens, 24 h
# Experimental: (§1) K562, Jurkat and Molt-4 cell lines were seeded as 4x10^5/ml, Reh and Nalm-6 cell lines were seeded 5x10^5/ml, Hek293T cell line was seed as 2x10^5/ml.
# (§2) MTT assay is a 3-day test. On the first day, cell count was performed in Bio Rad TC-20 device with the help of trypan blue, each cell line was prepared by diluting to the specified concentrations and seeded in a 96-well plate as 100μL to each well and incubated for 1 day.
# (§3) On the second day, stock solutions were subsequently diluted to various concentrations (0.3–200 μM) with related medium prior to experiments. Specified concentrations of the compounds were seeded in a 96-well plate as 100μL to each well and incubated for 24 h.
# (§4) After incubation (on the third day), to precipitate leukemia cells, the cell plate was centrifuged at 1500 rpm for 5 min. […] The 50 μl of supernatant was discarded from each well and 100 μl of DMSO was added to dissolve the formazan. Plates were shaken for 45 min to dissolve the dye. Then the optical density of each well was measured by using Thermo VarioSkan Flush Multimode Reader Quantum ST5-1100 at 570 nm wavelength.
# (§5) Subsequently, viability rate of the cells at each concentration, as percentage, was determined by following formula (1):
# (§6) Viability rate (%)=100-[(OD(control)-OD(sample))/OD(control)×100].OD=Optical Density
# (§7) The IC50 values were calculated by using GraphPad Prism. All the data presented as the mean of 6 replicates. […] Statistical analysis was performed using dose-response inhibition, log(inhibitor) vs response-variable slope, least squares (ordinary) fit.
# Nalm-6 = assay: MTT assay, Nalm-6 cells; conditions: Homo sapiens, 24 h
# Experimental: as §1, §2, §3, §4, §5, §6, §7
smiles,measurement,setting,value
"COc1ccc(CN2CCN(Cc3ccc(C(=O)Nc4ccc(C)c(Nc5cc(C)ccn5)c4)cc3)CC2)c(OC)c1OC [Compound 10, N-(4-Methyl-3-((4-methylpyridin-2-yl)amino)phenyl)-4-((4-(2,3,4-trimethoxybenzyl)piperazin-1-yl)methyl)benzamide]",viability at 0.3 µM,Reh; 0.3 μM,93.4 ± 0.02%
same,viability at 0.5 µM,Reh; 0.5 μM,92.4 ± 0.02%
same,viability at 1 µM,Reh; 1 μM,92.4 ± 0.01%
same,viability at 3 µM,Reh; 3 μM,92.6 ± 0.02%
same,viability at 5 µM,Reh; 5 μM,92.8 ± 0.02%
same,viability at 10 µM,Reh; 10 μM,92.3 ± 0.03%
same,viability at 15 µM,Reh; 15 μM,92.6 ± 0.02%
same,viability at 20 µM,Reh; 20 μM,91.8 ± 0.01%
same,viability at 30 µM,Reh; 30 μM,65.6 ± 0.02%
same,viability at 50 µM,Reh; 50 μM,59.5 ± 0.03%
same,viability at 70 µM,Reh; 70 μM,59.1 ± 0.02%
same,viability at 100 µM,Reh; 100 μM,59.6 ± 0.03%
same,viability at 150 µM,Reh; 150 μM,57.4 ± 0.03%
same,viability at 200 µM,Reh; 200 μM,55.2 ± 0.03%
same,"viability at 24 h, 0.3 µM","[1]; Hek293T cells (non-leukemic control cell line), 0.3 μM",82.8 ± 0.02%
same,"viability at 24 h, 0.5 µM","[1]; Hek293T cells (non-leukemic control cell line), 0.5 μM",78.2 ± 0.01%
same,"viability at 24 h, 3 µM","[1]; Hek293T cells (non-leukemic control cell line), 3 μM",80.4 ± 0.02%
same,"viability at 24 h, 5 µM","[1]; Hek293T cells (non-leukemic control cell line), 5 μM",79.1 ± 0.01%
same,"viability at 24 h, 10 µM","[1]; Hek293T cells (non-leukemic control cell line), 10 μM",80.2 ± 0.02%
same,"viability at 24 h, 15 µM","[1]; Hek293T cells (non-leukemic control cell line), 15 μM",81.4 ± 0.01%
same,"viability at 24 h, 20 µM","[1]; Hek293T cells (non-leukemic control cell line), 20 μM",80.8 ± 0.01%
same,"viability at 24 h, 30 µM","[1]; Hek293T cells (non-leukemic control cell line), 30 μM",82.2 ± 0.03%
same,"viability at 24 h, 50 µM","[1]; Hek293T cells (non-leukemic control cell line), 50 μM",79.2 ± 0.03%
same,"viability at 24 h, 70 µM","[1]; Hek293T cells (non-leukemic control cell line), 70 μM",80.2 ± 0.02%
same,"viability at 24 h, 100 µM","[1]; Hek293T cells (non-leukemic control cell line), 100 μM",80.7 ± 0.01%
same,"viability at 24 h, 150 µM","[1]; Hek293T cells (non-leukemic control cell line), 150 μM",80 ± 0.01%
same,"viability at 24 h, 200 µM","[1]; Hek293T cells (non-leukemic control cell line), 200 μM",81 ± 0.02%
same,"viability at 24 h, 1 µM","[1]; Hek293T cells, 1 μM",78.1 ± 0.01%
same,viability at 0.3 µM,"Molt-4; Homo sapiens, MOLT-4, 24 h, Molt-4, 0.3 μM, read-out: Viability rate",87.9 ± 0.03%
same,viability at 0.5 µM,"Molt-4; Homo sapiens, MOLT-4, 24 h, Molt-4, 0.5 μM, read-out: Viability rate",86.8 ± 0.02%
same,viability at 1 µM,"Molt-4; Homo sapiens, MOLT-4, 24 h, Molt-4, 1 μM, read-out: Viability rate",87.7 ± 0.01%
same,viability at 3 µM,"Molt-4; Homo sapiens, MOLT-4, 24 h, Molt-4, 3 μM, read-out: Viability rate",86.5 ± 0.02%
same,viability at 5 µM,"Molt-4; Homo sapiens, MOLT-4, 24 h, Molt-4, 5 μM, read-out: Viability rate",86.2 ± 0.08%
same,viability at 10 µM,"Molt-4; Homo sapiens, MOLT-4, 24 h, Molt-4, 10 μM, read-out: Viability rate",89.1 ± 0.03%
same,viability at 15 µM,"Molt-4; Homo sapiens, MOLT-4, 24 h, Molt-4, 15 μM, read-out: Viability rate",88.1 ± 0.04%
same,viability at 20 µM,"Molt-4; Homo sapiens, MOLT-4, 24 h, Molt-4, 20 μM, read-out: Viability rate",77 ± 0.04%
same,viability at 30 µM,"Molt-4; Homo sapiens, MOLT-4, 24 h, Molt-4, 30 μM, read-out: Viability rate",65.3 ± 0.03%
same,viability at 50 µM,"Molt-4; Homo sapiens, MOLT-4, 24 h, Molt-4, 50 μM, read-out: Viability rate",52.1 ± 0.03%
same,viability at 70 µM,"Molt-4; Homo sapiens, MOLT-4, 24 h, Molt-4, 70 μM, read-out: Viability rate",42.8 ± 0.01%
same,viability at 100 µM,"Molt-4; Homo sapiens, MOLT-4, 24 h, Molt-4, 100 μM, read-out: Viability rate",40.4 ± 0.01%
same,viability at 150 µM,"Molt-4; Homo sapiens, MOLT-4, 24 h, Molt-4, 150 μM, read-out: Viability rate",40 ± 0.01%
same,viability at 200 µM,"Molt-4; Homo sapiens, MOLT-4, 24 h, Molt-4, 200 μM, read-out: Viability rate",40.7 ± 0.01%
same,Viability rate,"Molt-4; Molt-4, 200 μM, 24 h, 200 µM",< 50%
same,anticancer activity according to MTT assay results,[2],high anticancer activity
same,viability at 0.3 µM,Jurkat; 0.3 μM,73 ± 0.1%
same,viability at 0.5 µM,Jurkat; 0.5 μM,71.7 ± 0.1%
same,viability at 1 µM,Jurkat; 1 μM,70.9 ± 0.08%
same,viability at 3 µM,Jurkat; 3 μM,69.4 ± 0.03%
same,viability at 5 µM,Jurkat; 5 μM,68.7 ± 0.05%
same,viability at 10 µM,Jurkat; 10 μM,68.1 ± 0.09%
same,viability at 15 µM,Jurkat; 15 μM,67.5 ± 0.07%
same,viability at 20 µM,Jurkat; 20 μM,64.1 ± 0.15%
same,viability at 30 µM,Jurkat; 30 μM,61.7 ± 0.07%
same,viability at 50 µM,Jurkat; 50 μM,61.4 ± 0.05%
same,viability at 70 µM,Jurkat; 70 μM,50.5 ± 0.02%
same,viability at 100 µM,Jurkat; 100 μM,38.1 ± 0.2%
same,viability at 150 µM,Jurkat; 150 μM,35.9 ± 0.12%
same,viability at 200 µM,Jurkat; 200 μM,32.5 ± 0.03%
same,viability at 0.3 µM,"K562; K562, 0.3 μM, MTT, read-out: Viability rate",104.1 ± 0.07%
same,viability at 0.5 µM,"K562; K562, 0.5 μM, MTT, read-out: Viability rate",103.4 ± 0.06%
same,viability at 1 µM,"K562; K562, 1 μM, MTT, read-out: Viability rate",98.9 ± 0.05%
same,viability at 3 µM,"K562; K562, 3 μM, MTT, read-out: Viability rate",98.7 ± 0.04%
same,viability at 5 µM,"K562; K562, 5 μM, MTT, read-out: Viability rate",98.6 ± 0.06%
same,viability at 10 µM,"K562; K562, 10 μM, MTT, read-out: Viability rate",98.9 ± 0.09%
same,viability at 15 µM,"K562; K562, 15 μM, MTT, read-out: Viability rate",98.6 ± 0.08%
same,viability at 20 µM,"K562; K562, 20 μM, MTT, read-out: Viability rate",79.2 ± 0.06%
same,viability at 30 µM,"K562; K562, 30 μM, MTT, read-out: Viability rate",78.9 ± 0.1%
same,viability at 50 µM,"K562; K562, 50 μM, MTT, read-out: Viability rate",56.1 ± 0.03%
same,viability at 70 µM,"K562; K562, 70 μM, MTT, read-out: Viability rate",38.5 ± 0.02%
same,viability at 100 µM,"K562; K562, 100 μM, MTT, read-out: Viability rate",38.7 ± 0.01%
same,viability at 150 µM,"K562; K562, 150 μM, MTT, read-out: Viability rate",38.9 ± 0.01%
same,viability at 200 µM,"K562; K562, 200 μM, MTT, read-out: Viability rate",38.7%
same,IC50,"K562; K562, MTT, range 0.3–200 μM, six replicates",35 µM
same,viability at 0.3 µM,"Nalm-6; Nalm-6, 0.3 μM, MTT, read-out: Viability rate",92.7 ± 0.08%
same,viability at 0.5 µM,"Nalm-6; Nalm-6, 0.5 μM, MTT, read-out: Viability rate",88.6 ± 0.06%
same,viability at 1 µM,"Nalm-6; Nalm-6, 1 μM, MTT, read-out: Viability rate",87.3 ± 0.07%
same,viability at 3 µM,"Nalm-6; Nalm-6, 3 μM, MTT, read-out: Viability rate",86.5 ± 0.02%
same,viability at 5 µM,"Nalm-6; Nalm-6, 5 μM, MTT, read-out: Viability rate",85.5 ± 0.06%
same,viability at 10 µM,"Nalm-6; Nalm-6, 10 μM, MTT, read-out: Viability rate",84.8 ± 0.08%
same,viability at 15 µM,"Nalm-6; Nalm-6, 15 μM, MTT, read-out: Viability rate",82.2 ± 0.08%
same,viability at 20 µM,"Nalm-6; Nalm-6, 20 μM, MTT, read-out: Viability rate",71.9 ± 0.07%
same,viability at 30 µM,"Nalm-6; Nalm-6, 30 μM, MTT, read-out: Viability rate",54.2 ± 0.07%
same,viability at 50 µM,"Nalm-6; Nalm-6, 50 μM, MTT, read-out: Viability rate",29.8 ± 0.01%
same,viability at 70 µM,"Nalm-6; Nalm-6, 70 μM, MTT, read-out: Viability rate",28.8 ± 0.01%
same,viability at 100 µM,"Nalm-6; Nalm-6, 100 μM, MTT, read-out: Viability rate",28.7 ± 0.01%
same,viability at 150 µM,"Nalm-6; Nalm-6, 150 μM, MTT, read-out: Viability rate",28.5 ± 0.01%
same,viability at 200 µM,"Nalm-6; Nalm-6, 200 μM, MTT, read-out: Viability rate",28.7%
same,IC50,"Nalm-6; Nalm-6, MTT, range 0.3–200 μM, six replicates",28.7 µM
